Values after ≈ are worked out from the molar mass of the structure shown.
Key:
[1] = tested on: Streptococcus pneumoniae (ATCC6305); test: Microtitre plate IC90 determination against non-mycobacterial strains: S. pneumoniae; format: cell-based; conditions: 90% inhibitory concentration for bacterial growth, 37° C., resazurin fluorescence; for IC90: Streptococcus pneumoniae, ATCC6305, 24 h, read-out: IC90 SPN 1 6305; for IC90 SPN 1 6305: 24 hours
Experimental: (§1) The bacteria used in this study were grown overnight in flasks containing 100 ml Mueller-Hinton Broth (Becton Dickinson-cat. no. 275730) in sterile de-ionized water, with shaking, at 37° C. Stocks (0.5 ml/tube) were stored at -70° C. until use. Bacteria titrations were performed in microtiter plates to detect the TCID50, in which the TCID50 represents the dilution that gives rise to bacterial growth in 50% of inoculated cultures. In general, an inoculum level of approximately 100 TCID50 was used for susceptibility testing. […] Therefore resazurin (0.6 mg/ml) was added in a volume of 20 μl to all wells 3 hours after inoculation, and the plates were re-incubated overnight. A change in colour from blue to pink indicated the growth of bacteria.

M. smegmatis ATCC607 = test: In-vitro anti-bacterial activity against strain M. smegmatis ATCC607; conditions: for IC90: Mycolicibacterium smegmatis, ATCC607, 48 h, read-out: IC90 MSM 1 ATCC607, 90% inhibitory concentration for bacterial growth, 37° C., Alamar Blue fluorescence; for IC90 MSM 1 ATCC607: 90% inhibitory concentration for bacterial growth, 48 hours, 37° C., Alamar Blue fluorescence
Experimental: Flat-bottom, sterile 96-well plastic microtiter plates were filled with 180 μl of sterile deionized water, supplemented with 0.25% BSA. Subsequently, stock solutions (7.8× final test concentration) of compounds were added in 45 μl volumes to a series of duplicate wells in column 2 so as to allow evaluation of their effects on bacterial growth. Serial five-fold dilutions (45 μl in 180 μl) were made directly in the microtiter plates from column 2 to 11 using a customised robot system (Zymark Corp., Hopkinton, Mass.). Pipette tips were changed after every 3 dilutions to minimize pipetting errors with high hydrophobic compounds. Untreated control samples with (column 1) and without (column 12) inoculum were included in each microtiter plate. Approximately 250 CFU per well of bacteria inoculum, in a volume of 100 μl in 2.8× Mueller-Hinton broth medium, was added to the rows A to H, except column 12. The same volume of broth medium without inoculum was added to column 12 in row A to H. The cultures were incubated at 37° C. for 48 hours in a humidified 5% CO2 atmosphere (incubator with open air valve and continuous ventilation). At the end of incubation, two days after inoculation, the bacterial growth was quantitated fluorometrically. Therefore Alamar Blue (10×) was added to all wells in a volume of 20 μl and plates were incubated for another 2 hours at 50° C.
The fluorescence was read in a computer-controlled fluorometer (Cytofluor, Biosearch) at an excitation wavelength of 530 nm and an emission wavelength of 590 nm (gain 30). The percentage growth inhibition achieved by the compounds was calculated according to standard methods and expressed as IC90 (μg/ml) which defines the 90% inhibitory concentration for bacterial growth.

[2] = tested on: Staphylococcus aureus (ATCC29213); test: Microtitre plate IC90 determination against non-mycobacterial strains: S. aureus; format: cell-based; conditions: 90% inhibitory concentration for bacterial growth, 37° C., resazurin fluorescence; for IC90: Staphylococcus aureus, ATCC29213, 24 h, read-out: IC90 STA 1 B29213; for IC90 STA 1 B29213: 24 hours
Experimental: as §1

Row | Structure (SMILES) | IC90 [1] | IC90 (M. smegmatis ATCC607) | IC90 [2] | IC90 SPN 1 6305 [1] | IC90 MSM 1 ATCC607 (M. smegmatis ATCC607) | IC90 STA 1 B29213 [2]
1 | COc1nc2ccc(Br)cc2cc1C(c1ccccc1)C(O)(CCCCN1CC2CC1CN2CC(C)C)c1ccc2ccccc2c1 (single isomer, unassigned) [Compound 53] | 0.1 µg/mL (≈ 0.144 µM) | 1.6 µg/mL (≈ 2.31 µM) | 2.2 µg/mL (≈ 3.18 µM) | – | – | –
2 | COc1nc2ccc(Br)cc2cc1C(c1ccccc1)C(O)(CCCCN1CCCN(C)CC1)c1ccc2ccccc2c1 (stereo not drawn) [Compound 34d] | – | – | – | 0.4 µg/mL (≈ 0.613 µM) | 2.1 µg/mL (≈ 3.22 µM) | 2.1 µg/mL (≈ 3.22 µM)
3 | COc1nc2ccc(Br)cc2cc1C(c1ccccc1)C(O)(CCCCN1CC2CC1CN2CCN(C)C)c1ccc2ccccc2c1 (single isomer, unassigned) [Compound 62] | – | – | – | – | – | 2.2 µg/mL (≈ 3.11 µM)
4 | COc1nc2ccc(Br)cc2cc1C(c1ccccc1)C(O)(CCCCN1CC2CC1CN2C1CCN(C)CC1)c1ccc2ccccc2c1 (single isomer, unassigned) [Compound 63] | – | 2.3 µg/mL (≈ 3.13 µM) | 2.3 µg/mL (≈ 3.13 µM) | – | – | –
5 | COc1ccc(N2CCN(CCCCC(O)(c3ccc4ccccc4c3)C(c3ccccc3)c3cc4cc(Br)ccc4nc3OC)CC2)cc1 (single isomer, unassigned) [Compound 26] | 18.4 µg/mL (≈ 25.2 µM) | 18.4 µg/mL (≈ 25.2 µM) | 18.4 µg/mL (≈ 25.2 µM) | – | – | –
6 | COc1nc2ccc(Br)cc2cc1C(c1ccccc1)C(O)(CCCCNC1CC2CCC1C2)c1ccccc1 (stereo not drawn) [Compound 60] | – | 1.9 µg/mL (≈ 3.17 µM) | 1.9 µg/mL (≈ 3.17 µM) | – | – | –
7 | COc1nc2ccc(Br)cc2cc1C(c1ccccc1)C(O)(CCCCN1CC2CC1CN2C)c1ccc2ccccc2c1 (single isomer, unassigned) [Compound 57] | – | – | – | – | 2.1 µg/mL (≈ 3.23 µM) | 2.3 µg/mL (≈ 3.53 µM)
8 | COc1nc2ccc(Br)cc2cc1C(c1ccccc1)C(O)(CCCCN1CCCN(C)CC1)c1ccc2ccccc2c1 (stereo not drawn) [Compound 35a] | – | – | – | 0.4 µg/mL (≈ 0.613 µM) | 0.9 µg/mL (≈ 1.38 µM) | 2.1 µg/mL (≈ 3.22 µM)
9 | COc1nc2ccc(Br)cc2cc1C(c1ccccc1)C(O)(CCCCN(C)C1CCN(C)CC1)c1ccccc1 (single isomer, unassigned) [Compound 4] | 2 µg/mL (≈ 3.24 µM) | 2 µg/mL (≈ 3.24 µM) | 9.8 µg/mL (≈ 15.9 µM) | – | – | –
10 | COc1nc2ccc(Br)cc2cc1C(c1ccccc1)C(O)(CCCCN1CCN(C2CCN(Cc3ccccc3)C2)CC1)c1ccc2ccccc2c1 (single isomer, unassigned) [Compound 30b] | – | – | – | 31 µg/mL (≈ 39.5 µM) | 31 µg/mL (≈ 39.5 µM) | 62 µg/mL (≈ 79.1 µM)
11 | COc1nc2ccc(Br)cc2cc1C(c1ccccc1)C(O)(CCCCN1CC2CC1CN2CC(C)C)c1ccc2ccccc2c1 (stereo not drawn) [Compound 52] | 0.5 µg/mL (≈ 0.722 µM) | 2.2 µg/mL (≈ 3.18 µM) | 2.2 µg/mL (≈ 3.18 µM) | – | – | –
12 | COc1nc2ccc(Br)cc2cc1C(c1ccccc1)C(O)(CCCCN1CCN(C2CCN(Cc3ccccc3)C2)CC1)c1ccc2ccccc2c1 (single isomer, unassigned) [Compound 32] | – | – | – | 2.5 µg/mL (≈ 3.19 µM) | 5.6 µg/mL (≈ 7.14 µM) | 2.5 µg/mL (≈ 3.19 µM)
13 | COc1nc2ccc(Br)cc2cc1C(c1ccccc1)C(O)(CCCCN(C)CCc1ccccn1)c1ccccc1 (stereo not drawn) [Compound 6] | 2.2 µg/mL (≈ 3.52 µM) | 2 µg/mL (≈ 3.2 µM) | 2 µg/mL (≈ 3.2 µM) | – | – | –
14 | COc1nc2ccc(Br)cc2cc1C(c1ccccc1)C(O)(CCCCNCCN(C)C)c1ccccc1 (single isomer, unassigned) [Compound 65] | – | 1.8 µg/mL (≈ 3.12 µM) | 1.8 µg/mL (≈ 3.12 µM) | – | – | –
15 | COc1nc2ccc(Br)cc2cc1C(c1ccccc1)C(O)(CCCCN1CCCNCC1)c1ccccc1 (single isomer, unassigned) [Compound 47] | 0.9 µg/mL (≈ 1.53 µM) | 1.9 µg/mL (≈ 3.23 µM) | 1.9 µg/mL (≈ 3.23 µM) | – | – | –
16 | COc1nc2ccc(Br)cc2cc1C(c1ccccc1)C(O)(CCCCN1CCCN(C)CC1)c1ccc2ccccc2c1 (stereo not drawn) [Compound 35c] | – | – | – | 0.4 µg/mL (≈ 0.613 µM) | 1.5 µg/mL (≈ 2.3 µM) | 2.1 µg/mL (≈ 3.22 µM)
17 | COc1nc2ccc(Br)cc2cc1C(c1ccccc1)C(O)(CCCCN1CCC(N2CCCCC2)CC1)CCc1ccccc1 (single isomer, unassigned) [Compound 10] | – | – | – | 2.2 µg/mL (≈ 3.21 µM) | 2.4 µg/mL (≈ 3.5 µM) | 2.2 µg/mL (≈ 3.21 µM)
18 | COc1nc2ccc(Br)cc2cc1C(c1ccccc1)C(O)(CCCCN1CCC(N2CCCCC2)CC1)c1ccc2ccccc2c1 (single isomer, unassigned) [Compound 28] | – | 2.5 µg/mL (≈ 3.54 µM) | – | 2.8 µg/mL (≈ 3.96 µM) | – | 2.2 µg/mL (≈ 3.11 µM)
19 | COc1nc2ccc(Br)cc2cc1C(c1ccccc1)C(O)(CCCCNC1CC2CCC1C2)c1ccc2ccccc2c1 (stereo not drawn) [Compound 39] | 0.4 µg/mL (≈ 0.616 µM) | – | 1.8 µg/mL (≈ 2.77 µM) | – | 1.8 µg/mL (≈ 2.77 µM) | –

Row | Structure (SMILES) | IC90 [1] | IC90 (M. smegmatis ATCC607) | IC90 [2] | IC90 SPN 1 6305 [1] | IC90 MSM 1 ATCC607 (M. smegmatis ATCC607) | IC90 STA 1 B29213 [2]
20 | COc1nc2ccc(Br)cc2cc1C(c1ccccc1)C(O)(CCCCN(C)CCc1ccccn1)c1ccccc1 (stereo not drawn) [Compound 7] | – | – | – | 2.0 µg/mL (≈ 3.2 µM) | 2.0 µg/mL (≈ 3.2 µM) | 2.0 µg/mL (≈ 3.2 µM)
21 | COc1nc2ccc(Br)cc2cc1C(c1ccccc1)C(O)(CCCCN(C)C1CCN(C)CC1)c1ccccc1 (single isomer, unassigned) [Compound 5] | – | – | – | 2.0 µg/mL (≈ 3.24 µM) | 2.0 µg/mL (≈ 3.24 µM) | 7.8 µg/mL (≈ 12.6 µM)
22 | COc1nc2ccc(Br)cc2cc1C(c1ccccc1)C(O)(CCCCN(C)CCc1ccccn1)c1ccccc1 (stereo not drawn) [Compound 9] | – | – | – | 2.2 µg/mL (≈ 3.52 µM) | 2.0 µg/mL (≈ 3.2 µM) | 2.0 µg/mL (≈ 3.2 µM)
23 | COc1nc2ccc(Br)cc2cc1C(c1ccccc1)C(O)(CCCCN1CC2CC1CN2Cc1ccccc1)CCc1ccccc1 (single isomer, unassigned) [Compound 12] | 2.2 µg/mL (≈ 3.12 µM) | – | – | – | 2.2 µg/mL (≈ 3.12 µM) | 11.2 µg/mL (≈ 15.9 µM)
24 | COc1nc2ccc(Br)cc2cc1C(c1ccccc1)C(O)(CCCCN(C)CCc1ccccn1)c1ccccc1 (stereo not drawn) [Compound 8] | – | – | – | 2.2 µg/mL (≈ 3.52 µM) | 2.0 µg/mL (≈ 3.2 µM) | 2.0 µg/mL (≈ 3.2 µM)
25 | COc1nc2ccc(Br)cc2cc1C(c1ccccc1)C(O)(CCCCN1CC2CC1CN2Cc1ccccc1)c1ccc2ccccc2c1 (single isomer, unassigned) [Compound 21] | – | – | – | 0.6 µg/mL (≈ 0.826 µM) | 5.8 µg/mL (≈ 7.98 µM) | 2.3 µg/mL (≈ 3.16 µM)
26 | COc1nc2ccc(Br)cc2cc1C(c1ccccc1)C(O)(CCCCc1ccccc1)CCCCN1CC2CC1CN2Cc1ccccc1 (single isomer, unassigned) [Compound 17] | – | – | – | 0.8 µg/mL (≈ 1.09 µM) | 0.7 µg/mL (≈ 0.955 µM) | 2.3 µg/mL (≈ 3.14 µM)
27 | COc1nc2ccc(Br)cc2cc1C(c1ccccc1)C(O)(CCCCN1CC2CC1CN2CCc1ccccc1)c1ccc2ccccc2c1 (single isomer, unassigned) [Compound 24] | – | 2.3 µg/mL (≈ 3.1 µM) | – | 2.1 µg/mL (≈ 2.83 µM) | – | 11.7 µg/mL (≈ 15.8 µM)
28 | COc1nc2ccc(Br)cc2cc1C(c1ccc(Cl)cc1)C(O)(CCCCN1CC2CC1CN2Cc1ccccc1)c1ccc2ccccc2c1 (single isomer, unassigned) [Compound 37] | – | – | – | 0.5 µg/mL (≈ 0.657 µM) | 2.1 µg/mL (≈ 2.76 µM) | 2.7 µg/mL (≈ 3.55 µM)
29 | CN1CCCN(CCCCC(O)(c2ccc3ccccc3c2)C(c2ccccc2)c2cc3cc(Br)ccc3[nH]c2=O)CC1 (single isomer, unassigned) [Compound 45] | – | 2 µg/mL (≈ 3.13 µM) | – | – | – | 2.3 µg/mL (≈ 3.6 µM)
30 | COc1nc2ccc(Br)cc2cc1C(c1ccccc1)C(O)(CCCCc1ccccc1)CCCCN1CC2CC1CN2Cc1ccccc1 (single isomer, unassigned) [Compound 16] | 1.5 µg/mL (≈ 2.05 µM) | 0.6 µg/mL (≈ 0.819 µM) | – | – | – | 7.3 µg/mL (≈ 9.96 µM)
31 | COc1ccc(N2CCN(CCCCC(O)(c3ccc4ccccc4c3)C(c3ccccc3)c3cc4cc(Br)ccc4nc3OC)CC2)cc1 (single isomer, unassigned) [Compound 27] | – | – | – | – | – | 18.4 µg/mL (≈ 25.2 µM)
32 | COc1nc2ccc(Br)cc2cc1C(c1ccccc1)C(O)(CCCCN1CC2CC1CN2C)c1ccc2ccccc2c1 (single isomer, unassigned) [Compound 56] | – | 2.1 µg/mL (≈ 3.23 µM) | 2.3 µg/mL (≈ 3.53 µM) | – | – | –
33 | COc1nc2ccc(Br)cc2cc1C(c1ccccc1)C(O)(CCCCN1CCC1)c1ccccc1 (single isomer, unassigned) [Compound 42] | – | – | – | 4.3 µg/mL (≈ 7.88 µM) | 2.2 µg/mL (≈ 4.03 µM) | 8.6 µg/mL (≈ 15.8 µM)
34 | COc1nc2ccc(Br)cc2cc1C(c1ccccc1)C(O)(CCCCN1CC2CC1CN2Cc1ccccc1)c1ccccc1 (single isomer, unassigned) [Compound 48] | 0.5 µg/mL (≈ 0.739 µM) | 2.4 µg/mL (≈ 3.55 µM) | 2.1 µg/mL (≈ 3.1 µM) | – | – | –
35 | COc1nc2ccc(Br)cc2cc1C(c1ccccc1)C(O)(CCCCN1CC2CC1CN2C1CCN(C)CC1)c1ccc2ccccc2c1 (single isomer, unassigned) [Compound 64] | – | – | – | – | 1.3 µg/mL (≈ 1.77 µM) | 2.3 µg/mL (≈ 3.13 µM)
36 | COc1nc2ccc(Br)cc2cc1C(c1ccccc1)C(O)(CCCCN1CCCN(C)CC1)c1ccc2ccccc2c1 (single isomer, unassigned) [Compound 34] | – | 2.1 µg/mL (≈ 3.22 µM) | 2.1 µg/mL (≈ 3.22 µM) | – | – | –
37 | COc1nc2ccc(Br)cc2cc1C(c1ccccc1)C(O)(CCCCNCCN(C)C)c1ccccc1 (single isomer, unassigned) [Compound 66] | – | – | – | – | – | 1.8 µg/mL (≈ 3.12 µM)
38 | COc1nc2ccc(Br)cc2cc1C(c1ccccc1)C(O)(CCCCN1CC2CC1CN2CCN(C)C)c1ccc2ccccc2c1 (single isomer, unassigned) [Compound 61] | – | 2.2 µg/mL (≈ 3.11 µM) | 2.2 µg/mL (≈ 3.11 µM) | – | – | –
